Assays:
corn = test: Test B pre-/postemergence herbicide test; assay type: in vivo, Zea mays
Outline: (§1)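 Formulation: non-phytotoxic solvent mix with surfactant. Timing: preemergence on seed and postemergence on 2–18 cm plants, applied concurrently. Readout after 13–15 d greenhouse: visual 0–100 control rating against controls.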

lambsquarters = test: Test B pre-/postemergence herbicide test; assay type: in vivo, Chenopodium album
Outline: as §1

blackgrass = test: Test B postemergence herbicide test; assay type: in vivo, Alopecurus myosuroides
Outline: (§2)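 Each value is a visual 0–100 response rating taken against controls 13 to 15 days after treatment in the greenhouse. Plants received formulated chemical postemergence at the 1- to 4-leaf stage or, in flooded paddy, at the 2-leaf stage.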

morningglory = test: Test B pre-/postemergence herbicide test; assay type: in vivo, Ipomoea coccinea
Outline: (§3)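 Evaluation is visual, comparing treated with control plants on a scale where 0 means no effect and 100 means full control. Treatments were preemergence, or postemergence on seedlings 2–18 cm tall, and held 13–15 days in the greenhouse.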

[1] = tested on: small flower umbrella sedge; test: Test B flooded paddy test; assay type: in vivo, Cyperus difformis; settings: 1000 g ai/ha, scale 0 to 100 (0 no effect, 100 complete control)
Outline: as §2

barnyardgrass [2] = test: Test B flooded paddy test; assay type: in vivo, Echinochloa crus-galli; settings: 1000 g ai/ha, scale 0 to 100 (0 no effect, 100 complete control)
Outline: as §2

wild oat = test: Test B postemergence herbicide test; assay type: in vivo, Avena fatua
Outline: (§4)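 Greenhouse test; postemergence application to plants at 1–4 leaves (2–18 cm); paddy species at 2 leaves; evaluated visually vs controls at 13–15 days; scale 0–100 (100 = complete control).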

wheat = test: Test B postemergence herbicide test; assay type: in vivo, Triticum aestivum; set-up: key to Wheat plant response rating: 0 = no effect, 100 = complete control
Outline: as §4

velvetleaf = test: Test B pre-/postemergence herbicide test; assay type: in vivo, Abutilon theophrasti
Outline: as §1

barnyardgrass [3] = test: Test B pre-/postemergence herbicide test; assay type: in vivo, Echinochloa crus-galli
Outline: as §3

large crabgrass = test: Test B pre-/postemergence herbicide test; assay type: in vivo, Digitaria sanguinalis
Outline: as §1

rice = test: Test B flooded paddy test; assay type: in vivo, Oryza sativa; settings: 1000 g ai/ha, scale 0 to 100 (0 no effect, 100 complete control)
Outline: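 Scale 0–100: zero equals no visible effect, 100 complete control, judged by eye relative to controls. Timing: 13 to 15 days in greenhouse post-treatment. Growth stage at spraying: two leaves (paddy) or one to four leaves, 2–18 cm (postemergence).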

cocklebur = test: Test B pre-/postemergence herbicide test; assay type: in vivo, Xanthium strumarium
Outline: as §3

ducksalad = test: Test B flooded paddy test; assay type: in vivo, Heteranthera limosa; settings: 1000 g ai/ha, scale 0 to 100 (0 no effect, 100 complete control)
Outline: as §2

pigweed = test: Test B pre-/postemergence herbicide test; assay type: in vivo, Amaranthus retroflexus
Outline: as §1

Surinam grass = test: Test B pre-/postemergence herbicide test; assay type: in vivo, Urochloa decumbens
Outline: as §1

[4] = 125 g ai/ha, 0 = no effect, 100 = complete control, preemergence
[5] = 500 g ai/ha, visual rating, 0 = no effect, 100 = complete control, preemergence
[6] = postemergence, 500 g ai/ha, scale 0 to 100, 0 is no effect, 100 is complete control
[7] = 125 g ai/ha, visual rating, scale 0 (no effect) to 100 (complete control), postemergence
[8] = 500 g ai/ha, visual rating 0-100, 0 no effect, 100 complete control, preemergence
[9] = postemergence, 125 g ai/ha, visual rating, scale 0 (no effect) to 100 (complete control)
[10] = postemergence, 500 g ai/ha, visual rating, scale 0 (no effect) to 100 (complete control)
[11] = Postemergence, 125 g ai/ha, scale 0 (no effect) to 100 (complete control)
[12] = Postemergence, 500 g ai/ha, visual rating after 13 to 15 days, scale 0 (no effect) to 100 (complete control)
[13] = Preemergence, 500 g ai/ha, scale 0 to 100
[14] = preemergence, 125 g ai/ha, 0 to 100 scale, 0 is no effect, 100 is complete control

Structure (SMILES): CCN(C)C(=O)c1ccc(F)c(NC(=O)C2CC(C(C)(C)C)=NN2CC)c1 (racemic) [Compound 307]
- Corn plant response rating (0 to 100 scale) (corn; [4]): 70
- Plant response rating, Corn (corn; [5]): 80
- Corn plant response rating (corn; [6]): 10
- Lambsquarters plant response rating (0 to 100 scale) (lambsquarters; [4]): 100
- Lambsquarters plant response rating (lambsquarters; [7]): 60
- Plant response rating, Lambsquarters (lambsquarters; [5]): 100
- Lambsquarters plant response rating (lambsquarters; [6]): 80
- Blackgrass plant response rating (blackgrass; [7]): 10
- Blackgrass plant response rating (blackgrass; [6]): 30
- Morningglory plant response rating (0 to 100 scale) (morningglory; [4]): 0
- Morningglory plant response rating (morningglory; [7]): 0
- Plant response rating, Morningglory (morningglory; [5]): 10
- Morningglory plant response rating (morningglory; [6]): 0
- Sedge, Umbrella plant response rating [1]: 90
- Barnyardgrass plant response rating (barnyardgrass [2]): 90
- Oat, Wild plant response rating (wild oat; [7]): 0
- Oat, Wild plant response rating (wild oat; [6]): 20
- Wheat plant response rating (wheat; 125 g ai/ha; visual rating, scale 0 (no effect) to 100 (complete control); postemergence): 0
- Wheat plant response rating (wheat; postemergence, 500 g ai/ha; scale 0 to 100, 0 is no effect, 100 is complete control): 20
- Velvetleaf plant response rating (velvetleaf; [7]): 10
- Plant response rating, Velvetleaf (velvetleaf; [5]): 100
- Velvetleaf plant response rating (velvetleaf; [6]): 60
- Barnyardgrass plant response rating (0 to 100 scale) (barnyardgrass [3]; [4]): 80
- Barnyardgrass plant response rating (barnyardgrass [3]; [7]): 0
- Plant response rating, Barnyardgrass (barnyardgrass [3]; [5]): 100
- Barnyardgrass plant response rating (barnyardgrass [3]; [6]): 10
- Crabgrass, Large plant response rating (0 to 100 scale) (large crabgrass; [4]): 90
- Crabgrass, Large plant response rating (large crabgrass; [7]): 10
- Plant response rating, Crabgrass, Large (large crabgrass; [5]): 100
- Crabgrass, Large plant response rating (large crabgrass; [6]): 30
- Rice plant response rating (rice): 90
- Cocklebur plant response rating (0 to 100 scale) (cocklebur; [4]): 80
- Cocklebur plant response rating (cocklebur; [7]): 20
- Plant response rating, Cocklebur (cocklebur; [5]): 100
- Cocklebur plant response rating (cocklebur; [6]): 30
- Ducksalad plant response rating (ducksalad): 80
- Pigweed plant response rating (0 to 100 scale) (pigweed; [4]): 100
- Pigweed plant response rating (pigweed; [7]): 50
- Plant response rating, Pigweed (pigweed; [5]): 100
- Pigweed plant response rating (pigweed; [6]): 60
- Surinam Grass plant response rating (0 to 100 scale) (Surinam grass; [4]): 70
- Surinam Grass plant response rating (Surinam grass; [7]): 10
- Plant response rating, Surinam Grass (Surinam grass; [5]): 90
- Surinam Grass plant response rating (Surinam grass; [6]): 30

Structure (SMILES): CCNC(=O)c1cccc(NC(=O)c2sc(C(C)(C)C)nc2C)c1 [Compound 198]
- Corn plant response rating (0 to 100 scale) (corn; [4]): 0
- Plant response rating, Corn (corn; [8]): 40
- Corn plant response rating (corn; [9]): 20
- Corn plant response rating (corn; [10]): 70
- Lambsquarters plant response rating (0 to 100 scale) (lambsquarters; [4]): 100
- Plant response rating, Lambsquarters (lambsquarters; [8]): 100
- Lambsquarters plant response rating (lambsquarters; [9]): 70
- Lambsquarters plant response rating (lambsquarters; [10]): 70
- Blackgrass plant response rating (blackgrass; [9]): 0
- Blackgrass plant response rating (blackgrass; [10]): 10
- Morningglory plant response rating (0 to 100 scale) (morningglory; [4]): 10
- Plant response rating, Morningglory (morningglory; [8]): 80
- Morningglory plant response rating (morningglory; [9]): 60
- Morningglory plant response rating (morningglory; [10]): 80
- Sedge, Umbrella plant response rating ([1]; visual rating, 13 to 15 days): 70
- Barnyardgrass plant response rating (barnyardgrass [2]; visual rating, 13 to 15 days): 20
- Oat, Wild plant response rating (wild oat; [9]): 20
- Oat, Wild plant response rating (wild oat; [10]): 30
- Wheat plant response rating (wheat; postemergence, 125 g ai/ha; visual rating, scale 0 (no effect) to 100 (complete control)): 0
- Wheat plant response rating (wheat; postemergence, 500 g ai/ha; visual rating, scale 0 (no effect) to 100 (complete control)): 10
- Velvetleaf plant response rating (0 to 100 scale) (velvetleaf; [4]): 0
- Plant response rating, Velvetleaf (velvetleaf; [8]): 60
- Velvetleaf plant response rating (velvetleaf; [9]): 20
- Velvetleaf plant response rating (velvetleaf; [10]): 20
- Barnyardgrass plant response rating (0 to 100 scale) (barnyardgrass [3]; [4]): 40
- Plant response rating, Barnyardgrass (barnyardgrass [3]; [8]): 90
- Barnyardgrass plant response rating (barnyardgrass [3]; [9]): 0
- Barnyardgrass plant response rating (barnyardgrass [3]; [10]): 30
- Crabgrass, Large plant response rating (0 to 100 scale) (large crabgrass; [4]): 80
- Plant response rating, Crabgrass, Large (large crabgrass; [8]): 100
- Crabgrass, Large plant response rating (large crabgrass; [9]): 10
- Crabgrass, Large plant response rating (large crabgrass; [10]): 20
- Rice plant response rating (rice; visual rating, 13 to 15 days): 20
- Cocklebur plant response rating (0 to 100 scale) (cocklebur; [4]): 0
- Plant response rating, Cocklebur (cocklebur; [8]): 20
- Cocklebur plant response rating (cocklebur; [9]): 60
- Cocklebur plant response rating (cocklebur; [10]): 90
- Ducksalad plant response rating (ducksalad; visual rating, 13 to 15 days): 70
- Pigweed plant response rating (0 to 100 scale) (pigweed; [4]): 90
- Plant response rating, Pigweed (pigweed; [8]): 100
- Pigweed plant response rating (pigweed; [9]): 50
- Pigweed plant response rating (pigweed; [10]): 50
- Surinam Grass plant response rating (0 to 100 scale) (Surinam grass; [4]): 10
- Plant response rating, Surinam Grass (Surinam grass; [8]): 50
- Surinam Grass plant response rating (Surinam grass; [9]): 20
- Surinam Grass plant response rating (Surinam grass; [10]): 20

Structure (SMILES): CCN(C)C(=O)c1cccc(NC(=O)c2cc(C(C)(C)C)nn2CC)c1 [Compound 48]
- Corn plant response rating (corn; [11]): 0
- Plant response rating, Corn (corn; [12]): 30
- Corn plant response rating (corn; [13]): 0
- Lambsquarters plant response rating (lambsquarters; [11]): 60
- Plant response rating, Lambsquarters (lambsquarters; [12]): 90
- Lambsquarters plant response rating (lambsquarters; [13]): 90
- Plant response rating, Lambsquarters (lambsquarters; [14]): 90
- Blackgrass plant response rating (blackgrass; [11]): 0
- Plant response rating, Blackgrass (blackgrass; [12]): 10
- Morningglory plant response rating (morningglory; [11]): 0
- Plant response rating, Morningglory (morningglory; [12]): 50
- Morningglory plant response rating (morningglory; [13]): 40
- Plant response rating, Morningglory (morningglory; [14]): 10
- Sedge, Umbrella plant response rating ([1]; visual rating, 13 to 15 days): 80
- Barnyardgrass plant response rating (barnyardgrass [2]; visual rating, 13 to 15 days): 80
- Oat, Wild plant response rating (wild oat; [11]): 10
- Plant response rating, Oat, Wild (wild oat; [12]): 30
- Plant response rating, Wheat (wheat; Postemergence, 500 g ai/ha; visual rating after 13 to 15 days, scale 0 (no effect) to 100 (complete control)): 20
- Plant response rating, Velvetleaf (velvetleaf; [12]): 80
- Velvetleaf plant response rating (velvetleaf; [13]): 100
- Plant response rating, Velvetleaf (velvetleaf; [14]): 90
- Barnyardgrass plant response rating (barnyardgrass [3]; [11]): 40
- Plant response rating, Barnyardgrass (barnyardgrass [3]; [12]): 60
- Barnyardgrass plant response rating (barnyardgrass [3]; [13]): 90
- Crabgrass, Large plant response rating (large crabgrass; [11]): 10
- Plant response rating, Crabgrass, Large (large crabgrass; [12]): 20
- Crabgrass, Large plant response rating (large crabgrass; [13]): 80
- Rice plant response rating (rice; visual rating, 13 to 15 days): 80
- Cocklebur plant response rating (cocklebur; [11]): 0
- Plant response rating, Cocklebur (cocklebur; [12]): 70
- Cocklebur plant response rating (cocklebur; [13]): 50
- Ducksalad plant response rating (ducksalad; visual rating, 13 to 15 days): 80
- Plant response rating, Pigweed (pigweed; [12]): 70
- Pigweed plant response rating (pigweed; [13]): 100
- Plant response rating, Pigweed (pigweed; [14]): 100
- Plant response rating, Surinam Grass (Surinam grass; [12]): 50
- Surinam Grass plant response rating (Surinam grass; [13]): 80
- Plant response rating, Surinam Grass (Surinam grass; [14]): 10

— patent US20060069132A1, “Azolecarboxamide herbicides” (priority 2004, published 2006)
